What all share (format): functional, cell-based
The subject of one test is KB. Nature of the test: Cytotoxicity against human KB cells assessed as growth inhibition after 48 hrs by MTT assay. Background: Tetrazolium assays rely on reduction of a dye to a coloured formazan, in cell work by metabolically active cells.
Test [1] in a line: Cytotoxicity against human SGC7901 cells assessed as growth inhibition after 48 hrs by MTT assay. To be noted: SGC-7901, 48 h.
Test [2] is described as follows: Cytotoxicity against human HT1080 cells assessed as growth inhibition after 48 hrs by MTT assay. To be noted: HT-1080, 48 h.

SMILES strings stand for the structures. A value given as a limit tells only on which side of the number the result lay.

A word on the IC50: it is the concentration needed to halve the response being measured. In the case of `CC[C@H]1OC(=O)[C@H](C)[C@@H](O[C@H]2C[C@@](C)(OC)[C@@H](O)[C@H](C)O2)[C@H](C)[C@@H](O[C@@H]2O[C@H](C)C[C@H](N(C)C(=O)CN(C)[C@H]3C[C@@H](C)O[C@@H](O[C@@H]4[C@@H](C)[C@H](O[C@H]5C[C@@](C)(OC)[C@@H](O)[C@H](C)O5)[C@@H](C)C(=O)O[C@H](CC)[C@@](C)(O)[C@H](O)[C@@H](C)C(=O)[C@H](C)C[C@@]4(C)O)[C@@H]3O)[C@H]2O)[C@](C)(OC)C[C@@H](C)C(=O)[C@H](C)[C@@H](O)[C@]1(C)O`, the IC50 in the test with KB was 27.6 µM; in test [1] it was 65.9 µM; in test [2], greater than 100 µM.

The values above are taken from ChEMBL document CHEMBL3217717, “Synthesis and antiproliferative activity of novel erythromycin derivatives” (Medchemcomm, 2010).
